In general, inhibition refers to the change of the read-out against control, counted positive when it falls. Higher therefore signals strong suppression.

Consider nine molecules from ChEMBL document CHEMBL1149993, “Simple cis-epoxide-based inhibitors of HIV-1 protease” (Bioorg Med Chem Lett, 1997).

In experiment [1] the target is Human immunodeficiency virus type 1 protease (Human immunodeficiency virus 1) (UniProt Q72874). Briefly: The compound was evaluated for irreversible inhibition of HIV-1 protease at 20 uM.
The target is the same in experiment [2]. The experiment in a line: Maximal inactivation rate towards HIV-1 protease was evaluated.
For experiment [3] the target is unchanged. The experiment in a line: The compound was evaluated for irreversible inhibition of HIV-1 protease at pH 6.5.
Experiment [4] in a line: Bimolecular rate constant is the ratio of Vinact/Kinact.
Experiment [5] deals with Human immunodeficiency virus type 1 protease (Human immunodeficiency virus 1) (UniProt Q72874). Briefly: The compound was evaluated for irreversible inhibition of HIV-1 protease.

In experiment [1], `CC(C)C(NC(=O)OCc1ccccc1)C(=O)OC[C@@H]1O[C@@H]1COc1ccc([N+](=O)[O-])cc1` (some centres not stated) gave an inhibition of 88%. Further, the Vinact in experiment [2] is 0.26 min⁻¹. For the same molecule, the K inact in experiment [3] is 1.8 µM. Moreover, the Ratio in experiment [4] worked out at 140000 M⁻¹ min⁻¹.
In turn, `CC(C)C(NC(=O)OCc1ccccc1)C(=O)N[C@@H](Cc1ccccc1)[C@@H]1O[C@@H]1[C@H](Cc1ccccc1)NC(=O)C(NC(=O)OCc1ccccc1)C(C)C` (some centres not stated) had a K inact in experiment [5] of 0.075 µM.
`O=C(OCC1c2ccccc2-c2ccccc21)N1CCC2OC2C1` (configuration not stated) came in with a K inact in experiment [5] of 65 µM.
The molecule `COC(=O)C(CC(C)C)NC(=O)[C@@H]1O[C@@H]1COc1ccc([N+](=O)[O-])cc1` (some centres not stated) showed an inhibition in experiment [1] of 30%.
Regarding `CC(C)C(NC(=O)OCc1ccccc1)C(=O)NC(C(=O)OC[C@@H]1O[C@@H]1COc1ccc([N+](=O)[O-])cc1)C(C)C` (some centres not stated), the inhibition in experiment [1] came to 25%.
Take `CC(C)C[C@@H]1O[C@@H]1[C@H](Cc1ccccc1)NC(=O)[C@H](C)NC(=O)[C@H](Cc1ccccc1)NC(=O)OCc1ccccc1`: in experiment [5], the K inact amounted to 20 µM.
As to `COC(=O)C(NC(=O)[C@@H]1O[C@@H]1COc1ccc([N+](=O)[O-])cc1)C(C)C` (some centres not stated), the inhibition in experiment [1] worked out at 22%.
Molecule `O=[N+]([O-])c1ccc(OCC2CO2)cc1` (configuration not stated) had a K inact in experiment [5] of 11000 µM.
`COC(=O)C(CC(C)C)NC(=O)[C@@H]1O[C@@H]1CCc1ccccc1` (some centres not stated) had an inhibition in experiment [1] of 19%.
